Laboratory results as given in patent US20170328922A1, “METHODS AND PRODUCTS FOR LABELLING LIPIDS” (UNIVERSITY OF SOUTH AUSTRALIA, priority 2014, published 2017).

What was measured:
[1] = Rhenium molecular probe-lipid overlay (dot blot); assay type: binding; parameters: key to interaction with Sphingosine (dot blot): ✓ indicates a positive interaction; x indicates no interaction
Protocol: (§1) The experimental protocol probe-lipid overlay was as follows: 50 μM of each lipids was loaded on to PVDF membranes (Perkin Elmer, USA), which were then incubated with molecular probes. PhenCyano and PhenPyridyl were assessed against eleven lipids including; sphingomyelin (Cat # S0756, Sigma Aldrich, USA), sphingosine (Cat # S7049; Sigma Aldrich, USA), L-phosphatidylethanolamine (Cat # P7943, Sigma Aldrich, USA), monosialodanglioside (GM1; Cat # G7641, Sigma Aldrich, USA), oleoly-L-?-lysophosphatidic acid (Cat # L7260, Sigma Aldrich, USA), palmitic acid (Cat # P5917, Sigma Aldrich, USA), sphingomyelin (Cat # S0756, Sigma Aldrich, USA), sphingosine (Cat # S7049; Sigma Aldrich, USA), L-?-phosphatidylethanolamine (Cat # P7943, Sigma Aldrich, USA), monosialodanglioside (GM1; Cat # G7641, Sigma Aldrich, USA), progesterone (Cat #102722, MP Biomedical, USA), ceramide (Cat # C2137; Sigma Aldrich, USA), triacylglycerol mix C2-C10 (Cat #17810, Sigma Aldrich, USA) and cholesteryl acetate (Cat #151114; Sigma Aldrich, USA).
(§2) All other molecular probes were assessed against a panel of six lipids including; sphingomyelin (Cat # S0756, Sigma Aldrich, USA), sphingosine (Cat # S7049; Sigma Aldrich, USA), L-?-phosphatidylethanolamine (Cat # P7943, Sigma Aldrich, USA), monosialodanglioside (GM1; Cat # G7641, Sigma Aldrich, USA), sphingomyelin (Cat # S0756, Sigma Aldrich, USA), sphingosine (Cat # S7049; Sigma Aldrich, USA), L-?-phosphatidylethanolamine (Cat # P7943, Sigma Aldrich, USA), monosialodanglioside (GM1; Cat # G7641, Sigma Aldrich, USA) and triacylglycerol mix C2-C10 (Cat #17810, Sigma Aldrich, USA).
(§3) Lipids were dissolved in ethanol, methanol or isopropanol for loading depending on solubility. Following lipid loading, membranes were left to dry for 20-30 minutes, then they were washed for 10 minutes in cold 10% ethanol, before they were incubated with 10 μM solution of each Rhenium molecular probe in cold 10% ethanol for one hour. Membranes were than washed four times for 10 minutes in cold 10% ethanol prior to imaging. Imaging was performed on an Image Quant Las 4000 (GE, Sweden) luminescent image analyser, with the Rhenium molecular probe being detected by excitation at 460 nm using an epi-blue light source, and detected using an 575 nm ethidium bromide filter.

[2] = Rhenium molecular probe-lipid overlay (dot blot); assay type: binding; parameters: key to interaction with Progesterone (dot blot): ✓ indicates a positive interaction; x indicates no interaction
Protocol: as §1, §3

[3] = Rhenium molecular probe-lipid overlay (dot blot); assay type: binding; parameters: key to interaction with Cholestrol (dot blot): ✓ indicates a positive interaction; x indicates no interaction
Protocol: as §1, §2, §3

[4] = tested on: 3T3 L1 cells; assay: Live cell staining with rhenium molecular probes; assay type: cell-based; conditions: live samples, 10-20 μM probe
Protocol: (§4) Probes were dissolved in DMSO to obtain a stock solution with a concentration of 10 mM. Stock solutions were stored at room temperature in a dark place. Working solutions were prepared only at the time of use as the probe has reduced solubility in aqueous solutions. A Working solution was a dilution 1/1000 to 1/500 of the stock in DMSO to PBS or cell medium, and as such the percentage of DMSO used in actual cell experiments was less than 1%.
(§5) For tissues, the tissues were isolated in PBS (or other physiological media) and mounted on a coverslip. For cells, these were grown as per normal practice on coverslips.
(§6) The media was removed media and replaced with 10-20 μM solution of molecular probes in PBS (or appropriate physiological media/cell media) at a dilution of stock solution from 1/1000-1/500, for 15-30 minutes at physiologically appropriate temperature (37° C. for cell culture or 25° C. for insect larvae). […] If foetal calf serum is necessary for cell health, an increased incubation time may be necessary to obtain adequate staining.
The samples were washed for one minute in PBS. […]
Micrographs of 3T3 L1, 453 cells and CHOK1 cells and Drosophila fat body tissue stained with rhenium molecular probes, PhenCyan top, PhenPyridyl bottom are shown in FIG. 10. […] Left: confocal images; Right: fluorescence microscopy images.

[5] = tested on: Drosophila fat body cells; assay: Live tissue staining with rhenium molecular probes (Examples 10, 13); assay type: cell-based
Protocol: as §4, §5, §6
The samples were washed for one minute in PBS. If co-staining was performed, the samples were washed in PBS for 30 seconds, before incubating with counterstain.
Tissues were mounted in optical coupling gel, such as carbomer-940 (Snowdrift farm, Tucson, USA) based gel to prevent dehydration prior to imaging and maintain tissue integrate (Rothstein, E. C., Nauman, M., Chesnick S., Balaban R. S., 2006, Multi-photon excitation microscopy in intact animals Journal of Microscopy 222, 58, 64). For cells, the coverslip was mounted in PBS for immediate imaging.
Samples were imaged immediately following staining.
Rhenium molecular probes were? excited at 800-830 nm using a two-photon pulse laser or 405 steady state laser and detection in the range of 490-670 nm, with an emission maxima at around 570.
Micrographs of 3T3 L1, 453 cells and CHOK1 cells and Drosophila fat body tissue stained with rhenium molecular probes, PhenCyan top, PhenPyridyl bottom are shown in FIG. 10. […] Left: confocal images; Right: fluorescence microscopy images. […]

[6] = 10 μM probe, 50 μM lipid on PVDF membrane

With `N#Cc1ccc(-c2nn[n]([Re](=[C]=O)(=[C]=O)=[C]=O)n2)cc1.c1cnc2c(c1)ccc1cccnc12` [PhenCyano, Triscarbonyl phenanthroline (4-cyanophenyltetrazolato)Rhenium(I)] the “interaction with Sphingosine (dot blot)” value [1, 6] was “✓”, the “affinity towards sphingosine, in words” value ([1]; FIG. 7 / FIG. 8) was “some affinity” and the “interaction with Progesterone (dot blot)” value [2, 6] was “✓”. For the same compound, the “affinity towards progesterone, in words” value ([2]; FIG. 7) was “some affinity”, the “interaction with Cholestrol (dot blot)” value [3, 6] was “✓” and the “affinity towards cholesterol, in words” value ([3]; FIG. 7 / FIG. 8) was “some affinity”. The “staining pattern in 3T3 L1 cells” value [4] was “distribution consistent with lipid droplet staining”, the “emission spectral profile in the acidic compartment versus lipid droplet” value ([5]; +2 h PF, following autophagic inducement) was “blue shift and an increase in emission intensity” and the “staining pattern in Drosophila fat body cells” value ([5]; live samples, 10-20 μM probe) was “distribution consistent with lipid droplet staining”.
